Data taken from ChEMBL document CHEMBL1153384, “Synthesis, antimalarial activity, and preclinical pharmacology of a novel series of 4'-fluoro and 4'-chloro analogues of amodiaquine. Identification of a suitable "back-up" compound for N-tert-butyl isoquine” (J Med Chem, 2009).

How the values were obtained:
[1] = system: Plasmodium falciparum; assay: Antimalarial activity against chloroquine-sensitive Plasmodium falciparum 3D7; assay type: functional, organism-based
[2] = system: Plasmodium falciparum; assay: Antimalarial activity against chloroquine-resistant Plasmodium falciparum TM6; assay type: functional, organism-based
[3] = system: Plasmodium falciparum; assay: Antimalarial activity against chloroquine-sensitive Plasmodium falciparum HB3; assay type: functional, organism-based
[4] = system: Plasmodium falciparum; assay: Antimalarial activity against chloroquine-resistant Plasmodium falciparum TM4; assay type: functional, organism-based
[5] = system: Plasmodium falciparum; assay: Antimalarial activity against […] Plasmodium falciparum Dd2; assay type: functional, organism-based
[6] = Biodistribution in cannulated Wistar rat bile assessed as [3H]labeled drug level at 54 umol/kg, iv after 5 hrs; assay type: ADME, organism-based; conditions: in vivo
[7] = Biodistribution in cannulated Wistar rat urine assessed as [3H]labeled drug level at 54 umol/kg, iv after 5 hrs; assay type: ADME, organism-based; conditions: in vivo
[8] = system: Liver; assay: Biodistribution in cannulated Wistar rat liver assessed as [3H]labeled drug level at 54 umol/kg, iv after 5 hrs; assay type: ADME, organism-based; conditions: in vivo
[9] = Drug metabolism in cannulated Wistar rat assessed as urinary excretion of [3H]labeled drug level at 54 umol/kg, iv after 5 hrs; assay type: ADME, organism-based, Urine; conditions: in vivo
[10] = system: Kidney; assay: Biodistribution in cannulated Wistar rat kidney assessed as [3H]labeled drug level at 54 umol/kg, iv after 5 hrs; assay type: ADME, organism-based; conditions: in vivo
[11] = Partition coefficient, log P of the compound; assay type: physicochemical; conditions: octanol/water
[12] = system: Rattus norvegicus; assay: Drug elimination in Wistar rat assessed as [3H]labeled drug level at 54 umol/kg, iv after 24 hrs; assay type: ADME, organism-based; conditions: in vivo
[13] = system: Kidney; assay: Biodistribution in Wistar rat kidney assessed as [3H]labeled drug level at 54 umol/kg, iv after 24 hrs; assay type: ADME, organism-based; conditions: in vivo
[14] = system: Liver; assay: Biodistribution in Wistar rat liver assessed as [3H]labeled drug level at 54 umol/kg, iv after 24 hrs; assay type: ADME, organism-based; conditions: in vivo
[15] = system: Lung; assay: Biodistribution in Wistar rat lung assessed as [3H]labeled drug level at 54 umol/kg, iv after 24 hrs; assay type: ADME, organism-based; conditions: in vivo
[16] = system: Rattus norvegicus; assay: Biodistribution in Wistar rat assessed as remaining [3H]labeled drug level at 54 umol/kg, iv after 5 hrs; assay type: ADME, organism-based; conditions: in vivo
[17] = system: Rattus norvegicus; assay: Biodistribution in Wistar rat assessed as remaining [3H]labeled drug level at 54 umol/kg, iv after 48 hrs; assay type: ADME, organism-based; conditions: in vivo
[18] = system: Rattus norvegicus; assay: Biodistribution in Wistar rat assessed as remaining [3H]labeled drug level at 54 umol/kg, iv after 168 hrs; assay type: ADME, organism-based; conditions: in vivo
[19] = system: Rattus norvegicus; assay: Metabolic stability in Wistar rat assessed as 2-[5-(7-Chloro-quinolin-4-ylamino)-2-fluoro-benzylamino]-2-methyl-propionic acids level at 54 umol/kg, iv administered as [3H]labeled drug after 5 hrs; assay type: ADME, organism-based; conditions: in vivo
[20] = system: Rattus norvegicus; assay: Metabolic stability in Wistar rat assessed as [3-(tert-Butylamino-methyl)-4-fluoro-phenyl]-(7-chloro-1-oxy-quinolin-4-yl)-amine level at 54 umol/kg, iv administered as [3H]labeled drug after 5 hrs; assay type: ADME, organism-based; conditions: in vivo
[21] = system: Rattus norvegicus; assay: Metabolic stability in Wistar rat assessed as (2S,3S,4S,5R,6S)-6-{2-[5-(7-Chloro-quinolin-4-ylamino)-2-fluoro-benzylamino]-2-methyl-propionyloxy}-3,4,5-trihydroxy-tetrahydro-pyran-2-carboxylic acid level at 54 umol/kg, iv administered as [3H]labeled drug after 5 hrs; assay type: ADME, organism-based; conditions: in vivo
[22] = Clearance in iv dosed mouse; assay type: ADME, organism-based; conditions: in vivo
[23] = Clearance in iv dosed rat; assay type: ADME, organism-based; conditions: in vivo
[24] = Oral bioavailability in mouse; assay type: ADME, organism-based; conditions: in vivo
[25] = Oral bioavailability in rat; assay type: ADME, organism-based; conditions: in vivo
[26] = Elimination half life in mouse at 10 mg/kg, po administered as single dose; assay type: ADME, organism-based; parameters: dose 10 mg/kg, route oral; conditions: in vivo, read-out: beta t1/2 (converted)
[27] = biological target: T1, Cytochrome P450 3A4 (Homo sapiens, UniProt P08684); assay: Inhibition of human CYP3A4 using PPR substrate; assay type: ADME
[28] = biological target: Cytochrome P450 2D6 (Homo sapiens, UniProt P10635); assay: Inhibition of human CYP2D6; assay type: ADME
[29] = biological target: T2, Cytochrome P450 2C8 (Homo sapiens, UniProt P10632); assay: Inhibition of human CYP2C8; assay type: ADME
T2 sequence (P10632 whole entry): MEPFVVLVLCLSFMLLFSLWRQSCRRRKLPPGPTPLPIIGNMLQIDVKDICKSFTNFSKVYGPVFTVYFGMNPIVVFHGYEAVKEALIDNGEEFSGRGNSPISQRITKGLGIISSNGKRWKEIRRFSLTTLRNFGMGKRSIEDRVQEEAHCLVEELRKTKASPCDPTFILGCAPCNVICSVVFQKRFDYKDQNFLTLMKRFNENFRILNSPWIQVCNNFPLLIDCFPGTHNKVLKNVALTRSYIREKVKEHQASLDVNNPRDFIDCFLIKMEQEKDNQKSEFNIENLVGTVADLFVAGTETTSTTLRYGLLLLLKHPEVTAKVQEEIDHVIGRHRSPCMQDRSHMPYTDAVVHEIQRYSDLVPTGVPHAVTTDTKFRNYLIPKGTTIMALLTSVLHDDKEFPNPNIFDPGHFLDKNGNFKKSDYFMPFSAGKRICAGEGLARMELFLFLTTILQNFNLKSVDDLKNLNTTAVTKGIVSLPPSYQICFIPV

[30] = biological target: Cytochrome P450 2C9 (Homo sapiens, UniProt P11712); assay: Inhibition of human CYP2C9; assay type: ADME
[31] = biological target: Cytochrome P450 2C19 (Homo sapiens, UniProt P33261); assay: Inhibition of human CYP2C19; assay type: ADME
[32] = system: Mus musculus; assay: Toxicity in po dosed mouse assessed as maximal nonlethal dose administered as single dose; assay type: organism-based; conditions: in vivo
[33] = Toxicity in po dosed mouse assessed as drug level causing no observed adverse effects administered as single dose; assay type: organism-based; conditions: in vivo, read-out: Activity
[34] = system: Mus musculus; assay: Toxicity in po dosed mouse assessed as induction of hepatotoxicity at drug dose above no observed adverse effects level; assay type: organism-based; conditions: in vivo
[35] = system: Mus musculus; assay: Toxicity in po dosed mouse assessed as induction of hematological toxicity at drug dose above no observed adverse effects level; assay type: organism-based; conditions: in vivo
[36] = Distribution coefficient, log D at pH 7.4; conditions: octanol/water
[37] = system: Plasmodium falciparum; assay: Antimalarial activity against chloroquine-resistant Plasmodium falciparum V1/S; assay type: functional, organism-based; conditions: V1S
[38] = system: Plasmodium falciparum; assay: Antimalarial activity against chloroquine-resistant Plasmodium falciparum J164; assay type: functional, organism-based
[39] = system: Plasmodium berghei; assay: Antimalarial activity as reduced parasitaemia against Plasmodium berghei ANKA infected CD1 mice (Mus musculus) perorally dosed daily over 4 days; assay type: functional; conditions: po, 96 h
[40] = system: Plasmodium yoelii; assay: Antimalarial activity as reduced parasitaemia against Plasmodium yoelii 17X infected CD1 mice (Mus musculus) perorally dosed daily for 4 days; assay type: functional; conditions: po, 96 h
[41] = system: Heme; assay: Binding affinity to heme assessed as binding constant for stepwise binding of 2 molecules of heme to 1 equivalent of drug in presence of 40% DMSO by UV-visible spectroscopy
[42] = biological target: T1, Cytochrome P450 3A4; assay: Inhibition of human CYP3A4 using DEF substrate
[43] = system: Plasmodium falciparum; assay: Antimalarial activity against chloroquine-resistant Plasmodium falciparum K1
[44] = system: Plasmodium yoelii; assay: Antimalarial activity as minimal concentration for parasite elimination at day 23 against Plasmodium yoelii 17X intravenously inoculated CD1 mice (Mus musculus) dosed 1 hrs post infection then daily for 4 days

T1 sequence (P08684 whole entry): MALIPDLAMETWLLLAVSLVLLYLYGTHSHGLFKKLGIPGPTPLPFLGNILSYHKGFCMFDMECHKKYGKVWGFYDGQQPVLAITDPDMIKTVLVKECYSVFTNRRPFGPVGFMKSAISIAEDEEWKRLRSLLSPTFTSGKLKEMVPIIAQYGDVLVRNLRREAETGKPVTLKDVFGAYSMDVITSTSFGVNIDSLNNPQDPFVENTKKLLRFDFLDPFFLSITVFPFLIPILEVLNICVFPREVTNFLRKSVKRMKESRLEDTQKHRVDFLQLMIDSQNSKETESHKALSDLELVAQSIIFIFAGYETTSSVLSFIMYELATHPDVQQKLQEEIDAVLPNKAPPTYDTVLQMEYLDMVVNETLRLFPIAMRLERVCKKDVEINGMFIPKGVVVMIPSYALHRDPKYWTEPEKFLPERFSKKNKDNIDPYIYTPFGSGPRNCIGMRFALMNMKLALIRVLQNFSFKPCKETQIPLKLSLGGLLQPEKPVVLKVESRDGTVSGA
Chain of Cytochrome P450 2D6 (P10635 whole entry): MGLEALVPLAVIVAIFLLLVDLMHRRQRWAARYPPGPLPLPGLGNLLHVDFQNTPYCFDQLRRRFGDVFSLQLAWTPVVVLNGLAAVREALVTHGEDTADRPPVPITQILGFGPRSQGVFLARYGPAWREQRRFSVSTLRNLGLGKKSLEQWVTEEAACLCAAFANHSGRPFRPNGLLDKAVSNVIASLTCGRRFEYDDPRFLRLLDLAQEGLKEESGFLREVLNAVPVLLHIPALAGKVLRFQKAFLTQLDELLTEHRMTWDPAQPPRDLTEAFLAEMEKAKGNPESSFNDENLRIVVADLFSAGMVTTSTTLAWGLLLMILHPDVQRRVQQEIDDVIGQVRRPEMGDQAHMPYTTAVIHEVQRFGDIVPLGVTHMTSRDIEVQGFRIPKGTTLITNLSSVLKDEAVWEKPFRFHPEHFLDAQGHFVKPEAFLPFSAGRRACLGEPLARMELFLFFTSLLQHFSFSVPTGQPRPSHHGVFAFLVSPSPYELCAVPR
Chain of Cytochrome P450 2C9 (P11712 whole entry): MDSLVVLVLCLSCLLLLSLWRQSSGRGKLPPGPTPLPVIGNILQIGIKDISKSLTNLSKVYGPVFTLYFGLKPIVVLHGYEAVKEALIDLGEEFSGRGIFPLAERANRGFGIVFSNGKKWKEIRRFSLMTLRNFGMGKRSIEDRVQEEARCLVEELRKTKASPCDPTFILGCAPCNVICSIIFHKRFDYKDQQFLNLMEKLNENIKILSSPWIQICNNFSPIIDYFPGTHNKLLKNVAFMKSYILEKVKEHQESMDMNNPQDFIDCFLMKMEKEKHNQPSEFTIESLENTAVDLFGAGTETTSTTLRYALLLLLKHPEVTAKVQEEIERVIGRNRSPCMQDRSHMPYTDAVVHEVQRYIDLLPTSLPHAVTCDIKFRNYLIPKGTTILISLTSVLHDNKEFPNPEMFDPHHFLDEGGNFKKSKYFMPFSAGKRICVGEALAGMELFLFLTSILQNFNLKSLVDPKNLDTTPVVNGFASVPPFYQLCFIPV
Chain of Cytochrome P450 2C19 (P33261 whole entry): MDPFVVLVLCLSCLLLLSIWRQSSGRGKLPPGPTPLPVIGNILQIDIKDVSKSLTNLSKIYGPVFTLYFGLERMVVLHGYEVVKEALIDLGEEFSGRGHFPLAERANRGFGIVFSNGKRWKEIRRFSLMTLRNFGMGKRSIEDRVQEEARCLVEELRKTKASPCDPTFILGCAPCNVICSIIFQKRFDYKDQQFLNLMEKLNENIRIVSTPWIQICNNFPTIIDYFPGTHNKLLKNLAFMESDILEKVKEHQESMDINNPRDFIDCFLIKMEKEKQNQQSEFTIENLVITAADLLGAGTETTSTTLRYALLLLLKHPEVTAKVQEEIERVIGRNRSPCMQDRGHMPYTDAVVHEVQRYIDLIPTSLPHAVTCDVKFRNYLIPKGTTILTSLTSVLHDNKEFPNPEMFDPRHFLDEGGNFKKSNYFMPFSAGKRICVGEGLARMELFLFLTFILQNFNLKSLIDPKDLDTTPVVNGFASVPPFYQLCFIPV

CC(C)(C)NCc1cc(Nc2ccnc3cc(Cl)ccc23)ccc1F
IC50 [1]: 12.1 nM | IC50 [2]: 21.9 nM | IC50 [3]: 14.6 nM | IC50 [4]: 17.3 nM | IC50 [5]: 22.4 nM | Activity [6]: 9.16 %ID | Activity [7]: 8.06 %ID | Drug uptake [8]: 17.49 %ID | Activity [9]: 8.06% | Drug uptake [10]: 3.97 %ID | logP [11]: 5.15 | Activity [12]: 51.36% | Drug uptake [13]: 1.48 %ID | Drug uptake [14]: 6.57 %ID | Drug uptake [15]: 1.17 %ID | Activity [16]: 38.54% | Activity [17]: 72.79% | Activity [18]: 1.22% | Activity [19]: 14.22% | Activity [20]: 3.55% | Activity [21]: 9.95% | clearance [22]: 40.4 mL/min/kg | clearance [23]: 35 mL/min/kg | bioavailability [24]: 37% | bioavailability [25]: 100% | half-life [26]: 7 h | IC50 [27]: Active | IC50 [28]: 300 nM | IC50 [29]: 9800 nM | IC50 [30]: 52000 nM | IC50 [31]: 64000 nM | Activity [32]: 610 mg/kg | NOAEL [33]: 300 mg/kg | Activity [34]: Toxic | Activity [35]: Toxic | logD [36]: 2.4 | IC50 [37]: 26.1 nM | IC50 [38]: 29.2 nM | ED50 [39]: 5.3 mg/kg | ED90 [39]: 12.4 mg/kg | ED50 [40]: 7.7 mg/kg | ED90 [40]: 10.6 mg/kg | log Ks [41]: 5.68 | IC50 [42]: > 100000 nM | IC50 [43]: 22 nM | Activity [44]: >40 mg/kg
